Reference: ChEMBL document CHEMBL1201862, “PubChem BioAssay data set” (2004)
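Exposure lasted 48 hours, with cells grown in 96-well plates and compounds tested at five concentrations. GI50 = concentration required for 50% inhibition of growth.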 The source made the active and inactive calls. Rule as the data show it: active = GI50 up to about 1.1 µM and inactive = higher.

Legend:
Assay in all cases: inhibition of tumour cell growth, NCI panel, 48 h
EKVX = tested on: EKVX
NCI-H522 = tested on: NCI-H522
T47D = tested on: T47D
UACC-62 = tested on: UACC-62
HOP-92 = tested on: HOP-92
SK-OV-3 = tested on: SK-OV-3
SNB-75 = tested on: SNB-75
SF-268 = tested on: SF-268
ACHN = tested on: ACHN
HT-29 = tested on: HT-29
K562 = tested on: K562
A549 = tested on: A549
BT-549 = tested on: BT-549
COLO 205 = tested on: COLO 205
MDA-MB-231 = tested on: MDA-MB-231
KM12 = tested on: KM12
SK-MEL-28 = tested on: SK-MEL-28
MDA-N = tested on: MDA-N
SR = tested on: SR
DMS-114 = tested on: DMS-114

Measured: GI50

CC(=O)Nc1nc(C)c(S(=O)(=O)NC(=O)N2c3ccccc3CCc3ccccc32)s1
inactive: EKVX > 100 µM | NCI-H522 > 100 µM | T47D > 100 µM | UACC-62 > 100 µM | HOP-92 > 100 µM | SK-OV-3 > 100 µM | SNB-75 > 100 µM | SF-268 > 100 µM | ACHN > 100 µM | HT-29 > 100 µM | K562 > 100 µM | A549 > 100 µM | BT-549 > 100 µM | COLO 205 > 100 µM | MDA-MB-231 > 100 µM | KM12 > 100 µM | SK-MEL-28 > 100 µM | MDA-N > 100 µM | SR > 100 µM

CC1=C(C(=O)Nc2cc(F)c(F)cc2F)C(c2ccc3c(c2)OCO3)C(C(=O)Nc2cc(F)c(F)cc2F)=C(C)N1
inactive: EKVX 18 µM | NCI-H522 14.9 µM | HOP-92 2.72 µM | SK-OV-3 19.4 µM | SNB-75 13.1 µM | SF-268 23.3 µM | ACHN 19.1 µM | HT-29 27.4 µM | K562 17.9 µM | A549 22.6 µM | DMS-114 17.7 µM | COLO 205 21.8 µM | KM12 19.2 µM | SK-MEL-28 33.2 µM

COC(=O)C1=C(C(=O)OC)C2C=CC1C1C(Cl)=C(Cl)C21 (stereo unspecified)
inactive: EKVX > 100 µM | NCI-H522 > 100 µM | UACC-62 > 100 µM | HOP-92 40.1 µM | SK-OV-3 > 100 µM | SNB-75 > 100 µM | SF-268 > 100 µM | ACHN > 100 µM | HT-29 > 100 µM | K562 > 100 µM | A549 > 100 µM | DMS-114 > 100 µM | COLO 205 > 100 µM | KM12 > 100 µM | SK-MEL-28 > 100 µM

C#CCCCC(=O)N(C(=O)C[S+]([O-])CC)c1ccccc1 (stereo unspecified)
inactive: EKVX > 100 µM | NCI-H522 > 100 µM | T47D > 100 µM | UACC-62 > 100 µM | HOP-92 > 100 µM | SK-OV-3 > 100 µM | SNB-75 > 100 µM | SF-268 > 100 µM | ACHN > 100 µM | HT-29 > 100 µM | K562 > 100 µM | A549 > 100 µM | BT-549 > 100 µM | COLO 205 > 100 µM | MDA-MB-231 > 100 µM | KM12 > 100 µM | SK-MEL-28 > 100 µM | MDA-N > 100 µM | SR > 100 µM

O=C(CCC(=O)Nc1cccc(C(F)(F)F)c1)CC(=O)c1ccc2ccccc2c1
inactive: EKVX > 100 µM | NCI-H522 > 100 µM | UACC-62 > 100 µM | HOP-92 > 100 µM | SK-OV-3 > 100 µM | SF-268 > 100 µM | ACHN > 100 µM | HT-29 > 100 µM | K562 > 100 µM | A549 > 100 µM | DMS-114 > 100 µM | COLO 205 > 100 µM | KM12 > 100 µM

COc1c2ccccc2c(OC)c2nc(C)ccc12
inactive: EKVX > 100 µM | NCI-H522 69.7 µM | T47D > 100 µM | UACC-62 > 81.8 µM | HOP-92 > 100 µM | SK-OV-3 > 100 µM | SNB-75 > 100 µM | SF-268 > 100 µM | ACHN > 100 µM | HT-29 49.3 µM | K562 30.6 µM | A549 > 100 µM | BT-549 > 79.1 µM | COLO 205 56.1 µM | MDA-MB-231 > 100 µM | KM12 > 100 µM | SK-MEL-28 > 100 µM | MDA-N > 100 µM | SR 30.8 µM

O=c1c2ccccc2oc2nc3n(c(=O)c12)CCCS3
inactive: EKVX > 100 µM | NCI-H522 > 100 µM | T47D > 100 µM | UACC-62 > 100 µM | HOP-92 > 100 µM | SK-OV-3 > 100 µM | SNB-75 63.4 µM | SF-268 > 100 µM | ACHN > 100 µM | K562 > 100 µM | A549 > 100 µM | BT-549 > 100 µM | COLO 205 > 100 µM | MDA-MB-231 > 100 µM | KM12 > 100 µM | SK-MEL-28 > 100 µM | MDA-N > 100 µM | SR > 100 µM

CCCCCC(=O)Nc1[nH]nnc1C#N
inactive: EKVX > 100 µM | NCI-H522 > 100 µM | T47D > 100 µM | UACC-62 > 100 µM | HOP-92 > 100 µM | SK-OV-3 > 100 µM | SNB-75 > 100 µM | SF-268 > 100 µM | ACHN > 100 µM | HT-29 > 100 µM | K562 > 100 µM | A549 > 100 µM | BT-549 > 100 µM | COLO 205 > 100 µM | MDA-MB-231 > 100 µM | KM12 > 100 µM | SK-MEL-28 > 100 µM | MDA-N > 100 µM | SR > 100 µM
